Experiments:
[1] = design: method as in earlier work; settings: rats, oral PTF 6 g/kg; cited from earlier work
[2] = Transport of PTF constituents across Caco-2 cell monolayers (LC-MS quantification); format: in vitro ADME, human; design: efflux ratio at 180 min / Papp A→B at 180 min: dose or concentration left out as unconfirmed; settings: human, Caco-2, 180 min; for efflux ratio at 180 min: read-out: PDR (ratio of P app BL→AP to P app AP→BL)
Experimental: (§1) When cells were cultured to 80% confluence, they were seeded in 12-well Transwell-Clear plates at a density of 1.2 × 10^5 cells/insert. Cells were cultured for 21 days to reach confluence and functional differentiation. Complete medium was replaced every 2 days for the first 2 weeks and daily renewed for the last 7 days. All cells were between passages 35 and 55. […] After 21-day culture, the complete medium was removed and the monolayer was washed three times and balanced with HBSS (previously warmed to 37°C) for 30 min. […] […] All samples were dried with organomation. Before analyzing, the dry samples were dissolved in methanol/water/acetic acid (200 : 200 : 1, v/v/v) and the insoluble substance was eliminated with centrifugation 12000 rpm for 5 min. Protein inhibitors including verapamil (100 μM), indomethacin (10 μM), and phloridzin (50 μM) were employed to investigate the role of different transporters. Epithelial tight junction modulators such as SDS (50 μg/mL) and PLL (50 μg/mL) were used to evaluate the role of paracellular permeability. Hydrophilic marker sodium fluorescein (0.6 mg/mL) was used for the evaluation of the integrity of the cell monolayer. […] The column temperature was 20°C and the injection volume was 20 μL. MS/MS analysis was acquired using an Agilent 6410 triple quadrupole mass spectrometer (Agilent Technologies, CA, USA) equipped with an electrospray ionisation (ESI) in the negative mode. Other analytical conditions included the drying gas temperature of 300°C, the drying gas flow of 11 L/min, the nebulizer pressure of 35 psi, and the capillary voltage of 4 kV. To get the highest abundance, the fragmentor voltage and collision energy were optimized. Data acquisition and processing were accepted by Agilent Mass Hunter workstation software version B.05.00 using multiple reaction monitoring (MRM). The quantification was performed using external standard method. […] Here, dC/dt is the change in concentration on the receiver side over time; V is the volume of the solution in the receiver chamber; A is the surface area of the cell monolayer; C 0 is the initial concentration in the donor chamber. PDR is the ratio of P app(BL→AP) to P app(AP→BL).

Caco-2 cell monolayers = assay: as above; format: in vitro ADME, human; design: efflux ratio at 180 min / Papp A→B at 180 min: dose or concentration left out as unconfirmed; settings: for change of transport with tight junction modulators SDS and PLL: SDS and PLL 50 μg/mL; for PDR (ratio of P app BL→AP to P app AP→BL): compound in PTF 1.00 mg/mL; for change of transport (P app) in presence of indomethacin: indomethacin 10 μM (MRPs/OATP inhibitor); for change of transport (P app) in presence of indomethacin / change of transport (P app) in presence of phloridzin / change of transport (P app) in presence of verapamil: PTF 1.00 mg/mL, 120 min; for change of transport (P app) in presence of phloridzin: phloridzin 50 μM (SGLT1 inhibitor); for change of transport (P app) in presence of verapamil: verapamil 100 μM (P-gp inhibitor)
Experimental: as §1

Caco-2 cell monolayer = test system: Caco-2 cell monolayer; design: method as in PMID 14646189; settings: pure compound; cited from earlier work
[3] = compound in PTF 1.00 mg/mL, mean ± SEM (n = 3)

| SMILES | peak concentration (C max) [1] | efflux ratio at 180 min [2] | Papp A→B at 180 min, 1 mg/mL [2, 3] [×10⁻⁶ cm/s] | Papp B→A at 180 min [2, 3] [×10⁻⁶ cm/s] | change of transport with tight junction modulators SDS and PLL (Caco-2 cell monolayers) | PDR (ratio of P app BL→AP to P app AP→BL) (Caco-2 cell monolayers; 180 min) | secretion transport P app (BL→AP) (Caco-2 cell monolayers; human, Caco-2, 180 min) | change of transport (P app) in presence of indomethacin (Caco-2 cell monolayers) | change of transport (P app) in presence of phloridzin (Caco-2 cell monolayers) | change of transport (P app) in presence of verapamil (Caco-2 cell monolayers) | Papp A→B at 180 min ([2]; mean ± SEM (n = 3)) [×10⁻⁶ cm/s] | absorption transport P app (AP→BL) (Caco-2 cell monolayers; compound in PTF) | secretion transport P app (BL→AP) (Caco-2 cell monolayers; compound in PTF) | P app of GA across Caco-2 cell monolayer (Caco-2 cell monolayer) | P app of marker across the monolayers (Caco-2 cell monolayers; sodium fluorescein 0.6 mg/mL, monolayer integrity check) |
| --- | --- | --- | --- | --- | --- | --- | --- | --- | --- | --- | --- | --- | --- | --- | --- |
| O=C(O[C@@H]1O[C@@H]2COC(=O)c3cc(O)c(O)c(O)c3-c3c(cc(O)c(O)c3O)C(=O)O[C@H]([C@H]1O)[C@@H]2O)c1cc(O)c(O)c(O)c1 [Corilagin] | lower than 10.47 μg/mL | 12.5 | 0.174 ± 0.019 | 2.18 ± 0.228 | greatly improved | more than 1.5 | ~10^−6 cm/s | significantly increased | no considerable change | significantly increased | – | – | – | – | – |
| O=c1oc2c(O)c(O)cc3c(=O)oc4c(O)c(O)cc1c4c23 [Ellagic acid] | lower than 10.47 μg/mL | 1.31 | – | 0.456 ± 0.01 | greatly improved | less than 1.5 | – | strongly decreased | strongly decreased | no substantial difference | 0.347 ± 0.018 | ~10^−7 cm/s | ~10^−7 cm/s | – | – |
| O=C(O)c1cc(O)c(O)c(O)c1 [Gallic acid] | lower than 10.47 μg/mL | 4.17 | – | 0.1 ± 0.009 | greatly improved | more than 1.5 | – | significantly increased | no considerable change | significantly increased | 0.024 ± 0.004 | – | ~10^−7 cm/s | about 0.20 × 10^−6 cm/s | – |
| O=C([O-])c1ccccc1-c1c2ccc(=O)cc-2oc2cc([O-])ccc12.[Na+].[Na+] [sodium fluorescein, reference compound] | – | – | – | – | – | – | – | – | – | – | – | – | – | – | 3.16 ± 0.25 × 10^−7 cm/s |
